Test results from patent publication US20100086483A1, “METHOD OF MULTIDETECTOR COMPUTED TOMAGRAPHY” (Gilead Palo Alto, Inc., priority 2008, published 2010).

Tests used:
normal subjects = experiment: Safety and tolerability of regadenoson with and without prior caffeine; type: in vivo, human
Description: 15O water was used as the radionuclide in the PET scans. There was a 1- to 14-day washout period between dosing days. Blood samples and measures of safety were collected until 120 minutes after study drug administration.
Safety measures included adverse events (AEs), serious adverse events, vital signs (HR and BP), ECG, concomitant medications, and a tolerability questionnaire. All available data from subjects who received the single dose of regadenoson were to be included in the statistical summaries.
ECG intervals and changes from baseline values in ECG intervals were to be presented, as were occurrences of rhythm or conduction abnormalities. Concomitant medication usage was to be summarized.
Tolerability questionnaire responses were to be analyzed using the Wilcoxen rank sum test (“How did you feel?” question) and the exact Cochran-Mantel-Haenszel test (Day 2-only question “How did this test compare to the first test?”).

conscious dogs = experiment: Effects of caffeine on regadenoson-induced coronary vasodilation and changes in hemodynamics in conscious dogs (Part II); type: in vivo, dog
Description: Sixteen chronically instrumented male mongrel dogs weighing from 22-30 kg were used in the study. The animal protocol was approved by the Institutional Animal Care and Use Committee of New York Medical College and conforms to the Guide for the Care and Use of Laboratory Animal by the United States National Institutes of Health.
Dogs were sedated with acepromazine (0.3 mg/kg, IM) and anesthetized with pentobarbital sodium (25 mg/kg, IV). After intubation, dogs were artificially ventilated with room air. A thoracotomy was made in the fifth intercostal space using sterile techniques. A Tygon catheter (Cardiovascular Instruments, Wakefield, Mass.) was inserted into the descending thoracic aorta and another one was inserted into the left atrium. In 9 dogs, an ultrasound flow transducer (Transonic Systems, Ithaca, N.Y.) was placed around the left circumflex coronary artery. A solid-state pressure gauge (P6.5, Konisberg Instruments, Pasadena, Calif.) was placed into the left ventricle through the apex. The chest was closed in layers. The catheters and wires were tunneled subcutaneously and externalized through the skin at the back of the dog's neck. Dogs were allowed to recover from the surgery before experiments were performed, and were trained to lie on a table.
Phasic arterial pressure was measured by connecting the aortic catheter to a strain gauge transducer (P23 ID, LDS Test and Measurement, Valley View, Ohio). Left ventricular pressures were measured by the solid pressure gauge. CBF (mL/min) was measured from an ultrasound flow transducer using a Transonic flowmeter (T206, Transonic Systems, Ithaca, N.Y.). Two indices were used to describe the regadenoson-induced coronary vasodilation: 1) the maximum increase in CBF and 2) the duration of the 2-fold increase in CBF (the period of time that CBF was elevated to a level ≧2-fold of baseline CBF). All pressure and flow data were acquired and analyzed using a Ponemah System (Version 3.30 or 4.20, LDS Test and Measurement, Valley View, Ohio). MAP and HR were calculated from phasic blood pressure, and LV dP/dtMax was calculated from the left ventricular systolic pressure.
On the day of an experiment, a dog was placed on a table, where it lay quietly during the experiment. A catheter was inserted into a peripheral vein in the leg and attached to an infusion line to administer drugs without disturbing the dog. The experiment was begun after MAP, HR and CBF were stable.
Each dog received an IV injection of 5 μg/kg of regadenoson. […] LVSP, LV dP/dtMax, MAP, HR and CBF were recorded continuously. Blood samples were taken from the left atrial catheter at 1, 3, 5, 15, 30, 45 and 60 min following injections of regadenoson.
In 4 dogs, two doses of regadenoson (5 μg/kg, IV) were given 90 min apart (without blood sampling) to determine if there is tachyphylaxis of regadenoson-induced coronary vasodilation.
The statistical significance of a difference between the value of a parameter at baseline and at the indicated time point after drug administration was determined using a One-Way Repeated Measures ANOVA followed by Tukey's Test. […] Results with p<0.05 were considered to be significant. […] All data are presented as Mean±SEM.

[1] = regadenoson 400 μg IV, 25/43 subjects
[2] = regadenoson 5 μg/kg IV in the presence of caffeine 1 mg/kg
[3] = regadenoson 5 μg/kg IV in the presence of caffeine 2 mg/kg
[4] = regadenoson 5 μg/kg IV in the presence of caffeine 4 mg/kg
[5] = regadenoson 5 μg/kg IV in the presence of caffeine 10 mg/kg
[6] = regadenoson 5 μg/kg IV without caffeine (control of caffeine 1 mg/kg group), 0.5 min
[7] = regadenoson 5 μg/kg IV without caffeine (control of caffeine 1 mg/kg group), 1 min
[8] = regadenoson 5 μg/kg IV without caffeine (control of caffeine 1 mg/kg group), 2 min
[9] = regadenoson 5 μg/kg IV without caffeine (control of caffeine 1 mg/kg group), 3 min
[10] = regadenoson 5 μg/kg IV without caffeine (control of caffeine 1 mg/kg group), 4 min
[11] = regadenoson 5 μg/kg IV without caffeine (control of caffeine 1 mg/kg group), 5 min
[12] = regadenoson 5 μg/kg IV without caffeine (control of caffeine 1 mg/kg group), 10 min
[13] = regadenoson 5 μg/kg IV without caffeine (control of caffeine 1 mg/kg group), 15 min
[14] = regadenoson 5 μg/kg IV without caffeine (control of caffeine 1 mg/kg group), 20 min
[15] = regadenoson 5 μg/kg IV without caffeine (control of caffeine 2 mg/kg group), 0.5 min
[16] = regadenoson 5 μg/kg IV without caffeine (control of caffeine 2 mg/kg group), 1 min
[17] = regadenoson 5 μg/kg IV without caffeine (control of caffeine 2 mg/kg group), 2 min

CNC(=O)c1cnn(-c2nc(N)c3ncn([C@@H]4O[C@H](CO)[C@@H](O)[C@H]4O)c3n2)c1 [Regadenoson, (1-{9-[(4S,2R,3R,5R)-3,4-dihydroxy-5-(hydroxymethyl)oxolan-2-yl]-6-aminopurin-2-yl}pyrazol-4-yl)-N-methylcarboxamide]
AE sensation of heaviness, percentage of subjects (normal subjects; regadenoson 400 μg IV): 28% | QTc prolongation (>500 msec and change of >60 msec) by ECG analysis after regadenoson dosing (normal subjects; regadenoson 400 μg IV): one subject | first degree AV block by ECG analysis after regadenoson dosing (normal subjects; regadenoson 400 μg IV): one subject | deaths or SAEs (normal subjects; regadenoson 400 μg IV with and without caffeine): no reported deaths or SAEs | patients with at least one AE considered possibly related to regadenoson treatment (normal subjects; regadenoson 400 μg IV, 1/43): 2% | AEs: ear and labyrinth disorders, percentage of subjects (normal subjects; regadenoson 400 μg IV, 1/43 subjects): 2% | AEs: gastrointestinal disorders, percentage of subjects (normal subjects; regadenoson 400 μg IV, 2/43 subjects): 5% | subjects with at least one AE with a maximum severity of severe (normal subjects; regadenoson 400 μg IV, 4/43): 9% | AE paraesthesia, percentage of subjects (normal subjects; regadenoson 400 μg IV, 8/43): 19% | AEs: general disorders and administration site conditions, percentage of subjects (normal subjects; regadenoson 400 μg IV, 11/43 subjects): 26% | AE headache, percentage of subjects (normal subjects; regadenoson 400 μg IV, 12/43): 28% | AEs: musculoskeletal and connective tissue disorders, percentage of subjects (normal subjects; regadenoson 400 μg IV, 12/43 subjects): 28% | AE flushing, percentage of subjects (normal subjects; regadenoson 400 μg IV, 13/43): 30% | AEs: vascular disorders, percentage of subjects (normal subjects; regadenoson 400 μg IV, 13/43 subjects): 30% | AEs: nervous system disorders, percentage of subjects (normal subjects; regadenoson 400 μg IV, 18/43 subjects): 42% | AE palpitations, percentage of subjects (normal subjects; regadenoson 400 μg IV, 21/43): 49% | subjects with at least one AE with a maximum severity of moderate (normal subjects; regadenoson 400 μg IV, 21/43): 49% | AE dyspnoea, percentage of subjects (normal subjects; regadenoson 400 μg IV, 24/43): 56% | AEs: cardiac disorders, percentage of subjects (normal subjects; [1]): 58% | AEs: respiratory, thoracic and mediastinal disorders, percentage of subjects (normal subjects; [1]): 58% | subjects with at least one AE with a maximum severity of mild (normal subjects; regadenoson 400 μg IV, forty percent): 17/43 | subjects with at least one AE considered probably related to regadenoson treatment (normal subjects; regadenoson 400 μg IV, ninety-five percent): 41/43 | time regadenoson-increased CBF remained at ≧2-fold baseline levels (conscious dogs; in the presence of 1, 2 and 4 mg/kg caffeine): ≥ 3 min | decrease in LVSP from baseline (conscious dogs; [2]): 9±3% | peak decrease in MAP from baseline (conscious dogs; [2]): 13±2% | decrease in LVSP from baseline (conscious dogs; [3]): 6±2% | peak decrease in MAP from baseline (conscious dogs; [3]): 13±1% | decrease in LVSP from control (p>0.05) (conscious dogs; [4]): 1±5% | peak decrease in MAP from baseline (conscious dogs; [4]): 2±5% | increase in LVSP from control (conscious dogs; [5]): 11±7% | increase in MAP from baseline (insignificant) (conscious dogs; [5]): 9±6% | peak increase in HR from baseline (conscious dogs; regadenoson 5 μg/kg IV with caffeine 1 mg/kg): 124±12% | peak increase in HR from baseline (conscious dogs; regadenoson 5 μg/kg IV with caffeine 2 mg/kg): 109±21% | peak increase in HR from baseline (conscious dogs; regadenoson 5 μg/kg IV with caffeine 4 mg/kg): 79±20% | peak increase in HR from baseline (conscious dogs; regadenoson 5 μg/kg IV with caffeine 10 mg/kg): 74±16% | HR (conscious dogs; [6]): 138 ± 10 bpm | MAP (conscious dogs; [6]): 97 ± 2 mm Hg | HR (conscious dogs; [7]): 144 ± 13 bpm | MAP (conscious dogs; [7]): 93 ± 3 mm Hg | HR (conscious dogs; [8]): 142 ± 9 bpm | MAP (conscious dogs; [8]): 92 ± 4 mm Hg | HR (conscious dogs; [9]): 131 ± 9 bpm | MAP (conscious dogs; [9]): 92 ± 3 mm Hg | HR (conscious dogs; [10]): 125 ± 8 bpm | MAP (conscious dogs; [10]): 94 ± 3 mm Hg | HR (conscious dogs; [11]): 121 ± 8 bpm | MAP (conscious dogs; [11]): 96 ± 3 mm Hg | HR (conscious dogs; [12]): 100 ± 7 bpm | MAP (conscious dogs; [12]): 97 ± 4 mm Hg | HR (conscious dogs; [13]): 94 ± 7 bpm | MAP (conscious dogs; [13]): 96 ± 4 mm Hg | HR (conscious dogs; [14]): 89 ± 7 bpm | MAP (conscious dogs; [14]): 96 ± 3 mm Hg | HR (conscious dogs; [15]): 160 ± 13 bpm | MAP (conscious dogs; [15]): 89 ± 5 mm Hg | HR (conscious dogs; [16]): 145 ± 7 bpm | MAP (conscious dogs; [16]): 89 ± 5 mm Hg | HR (conscious dogs; [17]): 150 ± 4 bpm | MAP (conscious dogs; [17]): 91 ± 5 mm Hg
